From patent US9873724B2, “Pro-angiogenic peptides and peptide conjugates” (Yissum Research Development Company of the Hebrew …, priority 2013, dated 2018) come the findings set out here.

“And” between values parts separate entries of the source, which are not always exact repeats. Equal entries are not always repeated. Square brackets hold non-standard residues; d marks the D form. Ends that are not written are not given here. * marks the point of attachment. fluorescein = fluorescein moiety coupled to a lysine residue (K-Flu); Tyr(3,5-I2) = N[C@@H](Cc1cc(I)c(O)c(I)c1)C(=O)O; Phe(4-Br) = N[C@@H](Cc1ccc(Br)cc1)C(=O)O; hArg = N=C(N)NCCCC[C@H](N)C(=O)O; Myristoyl = CCCCCCCCCCCCCC(=O)*; Lauroyl = CCCCCCCCCCCC(=O)*; Decanoyl = CCCCCCCCCC(=O)*; Nle = CCCC[C@H](N)C(=O)O; Octanoyl = CCCCCCCC(=O)*; Hexanoyl = CCCCCC(=O)*

Assay [1] has as its system mouse aortic rings. As to the kind of experiment: Aortic ring assay ex-vivo (capillary sprouting from mouse aortic rings in collagen; repeated with VEGF). Type of assay: cell-based. The arrangement: Capillary length 10 μM (10 μM) / Capillary length 20 μM / Capillary length 10 μM: unit not given here. The note with it: for Capillary length 10 μM (10 μM) / Capillary length 10 μM: peptide 10 μM; for Capillary length 10 μM (10 μM) / Capillary length 20 μM / Capillary length 10 μM: rings fixed after two weeks; for Capillary length 20 μM: peptide 20 μM; for effect of peptide together with VEGF (in words): 10 μM peptide with VEGF; for Average capillary length / Fold vs vehicle: 10 μM peptide, alone or together with VEGF; for capillary / vessel formation (in words): aortic ring assay, FIGS. 1A-1C and 2A-2C; for Fold vs vehicle: capillary length. The procedure:
Thoracic aortas were dissected from 7- to 8-week-old male SABRA mice. The aortas were immediately transferred to Petri dishes containing BIO-MPM-1. The adventitia and small vessels around the aorta were carefully removed under a dissecting microscope, and transverse cuts of 0.75 mm were made. The resulting aortic rings were extensively rinsed and incubated overnight in BIO-MPM-1 containing penicillin-streptomycin. Subsequently, the rings were embedded in 50 μl collagen mix (7 parts collagen, 1 part 10× Eagle minimal essential medium, MEM, and 2 parts 0.15 M sodium bicarbonate) in 96-well plates (Nunc, Rochester, N.Y.). Solidification of the collagen solution was achieved by raising the pH to neutral and the temperature to 37° C. 150 μl BIO-MPM-1 containing penicillin-streptomycin and the tested factors or peptides) was added to the embedded rings, and the plates were incubated at 37° C. in a humidified 10% CO2 atmosphere. Medium containing factors and/or peptides was refreshed at days 4 and 8. After two weeks, the rings were fixed with 4% formaldehyde for 24 hours, followed by staining with crystal violet (0.02%) dissolved in ethanol and extensive washing to remove excessive stain. The effect of factors and peptides was examined in 4 wells (4 rings of mouse aortic rings) per assay. Micrographs of representative rings were taken using a digital camera (Nikon, Tokyo, Japan). Morphometric analysis of sprouting was performed manually using Image-Pro 4.5 software (Media Cybernetics, Silver Spring, Md.) according to Nissanov et al. (Lab Invest. 1995; 73:734-739). Nonstained rings were subjected to paraffin sections and hematoxylin and eosin (H&E) staining.
FIGS. 1A-1C represents aortic ring capillary length and FIGS. 2A-2C aortic ring capillary width. In the table: K-Flu is a Lysine residue coupled with a fluorescein moiety, 4BrPhe is 4-bromo-Phenylalanine, Dod is Dodecanoyl, Dec designates Decanoyl, Oct is Octanoyl, and Hex is Hexanoyl.
The aortic ring assay was repeated in the presence of 10 μM concentration of peptides AB-033 (SEQ ID NO: 13) and AB-034 (SEQ ID NO: 14) together with the pro-angiogenetic protein VEGF.

In assay [2] the test system is Mice/Balb/c, hind limb ischemia model. Put plainly: Mouse hind limb ischemia/angiogenesis model. Type of assay: in vivo. Conditions: 20 mg/kg IP twice weekly. From the text: The object of this study was to determine whether administration of the test items, peptides AB-017 (SEQ ID NO: 12) and 725-106 (positive control, SEQ ID NO: 2) can enhance angiogenesis, subsequently inducing clinical and motor function improvement in a hind limb ischemia model. The principle of the test is based on changes in perfusion rate, clinical signs and histological parameters (necrosis) following administration of the test compounds.
Each tested group included 4-7 mice per group. Intraperitoneal (i.p) injection is the preferred route of administration of the test items in this model and DMSO/PEG is used as vehicle to prepare the test item solution.
Tested peptides were dissolved in 100% DMSO. Thereafter Polyethylene glycol (PEG) 400 is added to the solution. Sterile water was used to dilute to a final concentration of 0.5% DMSO/10% PEG 400/H2O to result 2 mg/ml. The solution is prepared and divided into marked aliquots and stored at −70° C.
Species/Strain: Mice/Balb/c male˜8 weeks
Animals were housed under standard laboratory conditions, air conditioned and filtered (HEPA F6/6) with adequate fresh air supply (31 air changes/hour). Animals were kept in a climate controlled environment. Temperatures range is between 20-24° C. and RH is between 30-70% with 12 hours light and 12 hours dark cycle. Animals were housed in polyethylene cages (7/cage) measuring 35×30×15 cm, with stainless steel top grill facilitating pelleted food and drinking water in plastic bottle; bedding: steam sterilized clean paddy husk. Bedding material is changed along with the cage at least twice a week. Diet: Animals are fed ad libitum a commercial rodent diet (Teklad Certified Global 18% Protein Diet cat #: 106S8216). Animals have free access to drinking water obtained from the municipality supply. Surgical Procedure: Anesthesia: Isoflurane 1.5-3% in a mixture of O2/N2O, under spontaneous respiration. All four limbs of the animal were taped down in order to facilitate the animal for surgery. Both hind legs of the animals are shaved and disinfected. On the operated leg, the right leg in all animals, an incision was made from the inguinal area to the proximity of the knee. The femoral vein/artery/nerve were exposed. The artery is dissected free from the vein, nerve and surrounding fascia. Distal to its bifurcation with the profound femoral artery, using 6-0 silk suture the artery is ligated twice, and thereafter transected between these two points (see prox-A-group model appendix I). The surgical wound is closed with 6-0 silk and the mouse is returned to its cage. The left leg is untreated control in all animals. Exclusion criteria: Only mice, whose mean flux measurement post surgery is […] and ≦50% of the pre surgical measurement, are incorporated into the study. Mice whose mean flux measurement post surgery out of this range were excluded from the study.
[formula] Drug administration: All animals were dosed by IP administration at a dose volume of 10 ml/kg.
Tests and Evaluation: Body weight: Body weights were measured prior to surgery, prior to each dosing, and prior to necropsy. Blood flow measurement: Using a Laser Doppler apparatus (Perimed PeriScan PIM II System, Technical manual available at test facility) Blood flow was measured (operated leg & control leg) while the legs are in their natural resting position at the following time points: Before surgery (after shaving) & Post surgery (Day 0); Day 1; Day 8; Day 15; Day 22; and Day 29. Each time point for each mouse consists of three measurements. Blood flow was measured, additionally, in first 10 animals at Pre before shaving. […]

For “725-106: Previously disclosed EDG3 peptide, positive control; Table 2: Myr-Gly, Nle, Arg, Pro, Tyr, Asn, Ala, NH2 (Myristoyl-G[Nle]RPYNA-NH2; SMILES CCCCCCCCCCCCCC(=O)NCC(=O)N[C@@H](CCCC)C(=O)N[C@@H](CCCNC(=N)N)C(=O)N1CCC[C@H]1C(=O)N[C@@H](Cc1ccc(O)cc1)C(=O)N[C@@H](CC(N)=O)C(=O)N[C@@H](C)C(N)=O) [Peptide 725-106, reference compound]”, in assay [1], the “Capillary length 10 μM (10 μM)” value is 7,000 and the “Capillary length 20 μM” value was 4,600. The “Functional evaluation at day 15 (individual mouse)” value in assay [2] (function score 0 (flexing the toes) to 3 (dragging of foot), one value per mouse) stood at 3.0. In addition, in assay [2] (group average of ischemic score), the “Hind limb ischemia evaluation at day 15, Average” value was determined as 2.4. Also, the “Hind limb ischemia evaluation at day 15 (individual mouse)” value in assay [2] (ischemic score 0 (absence of necrosis) to 4 (total hind-limb loss), one value per mouse, listed as 106) is 2.0 (2×) and 3.0 and 2.5.

As to “AB-011: Table 2: Myr-Gly, Nle, Arg, Pro, Tyr, Asn, Ala, K-Flu (lysine coupled with fluorescein), NH2 (Myristoyl-G[Nle]RPYNAK(fluorescein)-NH2)”, in assay [1], the “Capillary length 10 μM (10 μM)” value is recorded as 2500 and the “Capillary length 20 μM” value worked out at 5000.

In the case of “AB-013: Table 2: Myr-Gly, Nle, Arg, Pro, Tyr, Asn, DAla, NH2 (Myristoyl-G[Nle]RPYN[dA]-NH2; SMILES CCCCCCCCCCCCCC(=O)NCC(=O)N[C@@H](CCCC)C(=O)N[C@@H](CCCNC(=N)N)C(=O)N1CCC[C@H]1C(=O)N[C@@H](Cc1ccc(O)cc1)C(=O)N[C@@H](CC(N)=O)C(=O)N[C@H](C)C(N)=O)”, in assay [1], the “Capillary length 10 μM (10 μM)” value is 8700 and the “Capillary length 20 μM” value is on record as 900.

Turning to “AB-015: Table 2: Acetyl-Gly-, Arg, Pro, Tyr, NH2 (Ac-GRPY-NH2)”, in assay [1], the “Capillary length 10 μM (10 μM)” value is given as 1,000 and the “Capillary length 20 μM” value is on record as 1,700.

For “AB-018: Table 2: Myr-Gly, Nle, Arg, Pro, Tyr, Asn, NH2 (Myristoyl-G[Nle]RPYN-NH2; SMILES CCCCCCCCCCCCCC(=O)NCC(=O)N[C@@H](CCCC)C(=O)N[C@@H](CCCNC(=N)N)C(=O)N1CCC[C@H]1C(=O)N[C@@H](Cc1ccc(O)cc1)C(=O)N[C@@H](CC(N)=O)C(N)=O)”, in assay [1], the “Capillary length 10 μM (10 μM)” value is reported as 12,600 and the “Capillary length 20 μM” value is on record as 10,200.

“AB-020: Table 2: Dod-Gly (Dodecanoyl), Nle, Arg, Pro, Tyr (Lauroyl-G[Nle]RPY)”: in assay [1], the “Capillary length 10 μM” value was 5,600, the “Capillary length 10 μM (10 μM)” value is given as 1,900 and the “Capillary length 20 μM” value is 2,700.

As for “AB-021: Table 2: Dec-Gly (Decanoyl), Nle, Arg, Pro, Tyr (Decanoyl-G[Nle]RPY)”, in assay [1], the “Capillary length 10 μM” value is given as 3,940, the “Capillary length 10 μM (10 μM)” value was 590 and the “Capillary length 20 μM” value is listed as 3,200.

Turning to “AB-022: Table 2: Oct-Gly (Octanoyl), Nle, Arg, Pro, Tyr (Octanoyl-G[Nle]RPY)”, in assay [1], the “Capillary length 10 μM” value is given as 2,170, the “Capillary length 10 μM (10 μM)” value was 380 and the “Capillary length 20 μM” value is 1,700.

For the substance “AB-023: Table 2: Hex-Gly (Hexanoyl), Nle, Arg, Pro, Tyr (Hexanoyl-G[Nle]RPY)”, in assay [1], the “Capillary length 10 μM” value is recorded as 1,700, the “Capillary length 10 μM (10 μM)” value is listed as 430 and the “Capillary length 20 μM” value worked out at 320.

As for “AB-031: Table 2: Myr-Gly, Nle, Arg, Pro, 4BrPhe (Myristoyl-G[Nle]RP[Phe(4-Br)])”, the “Capillary length 10 μM” value in assay [1] is given as 1,840.

As to “Myr-Gly-Arg-Pro-Tyr-NH2 (Myristoyl-GRPY-NH2; SMILES CCCCCCCCCCCCCC(=O)NCC(=O)N[C@@H](CCCNC(=N)N)C(=O)N1CCC[C@H]1C(=O)N[C@@H](Cc1ccc(O)cc1)C(N)=O) [AB-016]”, in assay [1], the “Capillary length 10 μM (10 μM)” value is 8,700 and the “Capillary length 20 μM” value was 14,500.

For “Myr-Gly-Nle-Arg-Pro-35dITyr-NH2 (Myristoyl-G[Nle]RP[Tyr(3,5-I2)]-NH2; SMILES CCCCCCCCCCCCCC(=O)NCC(=O)N[C@@H](CCCC)C(=O)N[C@@H](CCCNC(=N)N)C(=O)N1CCC[C@H]1C(=O)N[C@@H](Cc1cc(I)c(O)c(I)c1)C(N)=O) [AB-033]”, in assay [1], the “effect of peptide together with VEGF (in words)” value is listed as “synergistic effect”, the Average capillary length is given as 4941, the “capillary / vessel formation (in words)” value was “induce massive capillary formation” and the Fold vs vehicle came out at 3.6. In assay [1], the “Capillary length 10 μM (10 μM)” value is given as 3,570 and the “Capillary length 20 μM” value is reported as 3,800.

With “Myr-Gly-Nle-hArg-Pro-Tyr-NH2 (Myristoyl-G[Nle][hArg]PY-NH2; SMILES CCCCCCCCCCCCCC(=O)NCC(=O)N[C@@H](CCCC)C(=O)N[C@@H](CCCCNC(=N)N)C(=O)N1CCC[C@H]1C(=O)N[C@@H](Cc1ccc(O)cc1)C(N)=O) [AB-034]”, in assay [1], the “effect of peptide together with VEGF (in words)” value is “synergistic effect”, the Average capillary length is listed as 3062, the “capillary / vessel formation (in words)” value was “induce massive capillary formation” and the Fold vs vehicle is given as 2.2. For the same substance, in assay [1], the “Capillary length 10 μM” value was 9,700, the “Capillary length 10 μM (10 μM)” value is 9,570 and the “Capillary length 20 μM” value is recorded as 10,780.

Turning to VEGF, in assay [1], the Average capillary length stood at 3221 and the Fold vs vehicle is given as 2.4.
